Laboratory results from patent US11154529B2, “Phosphaplatin liquid formulations” (Phosplatin Therapeutics Inc., priority 2016, dated 2021).

Assays:
[1] = Reversal of PT-112 dimer formation by added pyrophosphate in 5 mg/mL aqueous PT-112 solution at ambient temperature; format: physicochemical
Procedure: Evidence that added pyrophosphate reverses the formation of PT-112 dimer in aqueous formulations of PT-112 was shown in the following experiment. A 5 mg/mL aqueous solution of PT-112 was prepared by dissolving PT-112 in 10 mM potassium phosphate buffer containing added potassium hydroxide such that the final solution pH was ˜6.5. […] The decrease was not accompanied by the formation of the RRT 3.1-3.2 impurity; nor the formation of any new impurities, rather an increase in the concentration of PT-112 was observed.

[2] = Ready-to-use formulation stability at −20° C., 5 mg/mL (R,R)-pyrodach-2 in 10 mM Bicarbonate Buffer at pH 8.6, 10 mL vials; format: physicochemical

For `O=P1(O)OP(=O)(O)[O][Pt]2([NH][C@@H]3CCCC[C@H]3[NH]2)[O]1` (stereo partly drawn) [(R,R)-pyrodach-2, (R,R)-trans-1,2-cyclohexanediamine-(dihydrogenpyrophosphato)platinum(II)], the PT-112 dimer level ([1]; 5 mg/mL in 10 mM potassium phosphate, pH ~6.5, about 24 hours at ambient temperature) was “about 1.02%”, the PT-112 dimer level ([1]; adjusted to ~pH 7.5 plus 0.5 eq. of pyrophosphate, after 9 days at ambient temperature) was “effectively non-detectable level” and the PT-112 dimer concentration ([1]; adjusted to ~pH 7.5 with potassium hydroxide, 7 day period at ambient temperature, no pyrophosphate) was “progressively decrease”. The PT-112 dimer level ([1]; in the API) was “about 0.33%”, the “Potency (Assay)” value ([2]; 1 month) was 97.5% and the “Purity (% Area)” value ([2]; 1 month) was 97.08%. The “Unknown Impurities RRT~0.29” value ([2]; 1 month) was 0.16%, the “Unknown Impurities RRT~0.41” value ([2]; 1 month) was 0.07% and the “Unknown Impurities RRT~0.44” value ([2]; 1 month) was 0.09%. The “Unknown Impurities RRT~0.49” value ([2]; 1 month) was 0.94%, the “Unknown Impurities RRT~0.59” value ([2]; 1 month) was 0.09% and the “Unknown Impurities RRT~0.62” value ([2]; 1 month) was 0.12%. The “Unknown Impurities RRT~0.73” value ([2]; 1 month) was 1.12%, the “Unknown Impurities RRT~1.69” value ([2]; 1 month) was “ND (ND = Not Detected, or <0.05%)” and the “Unknown Impurities RRT~2.96” value ([2]; 1 month) was “ND (ND = Not Detected, or <0.05%)”. For the same molecule, the “Unknown Impurities RRT~3.02” value ([2]; 1 month) was “ND (ND = Not Detected, or <0.05%)”, the “Unknown Impurities RRT~3.12” value ([2]; 1 month) was 0.05% and the “Unknown Impurities RRT~3.24” value ([2]; 1 month) was “ND (ND = Not Detected, or <0.05%)”. The “Unknown Impurities RRT~3.30” value ([2]; 1 month) was 0.05%, the “Unknown Impurities RRT~3.33” value ([2]; 1 month) was 0.06% and the “Unknown Impurities RRT~3.70” value ([2]; 1 month) was “ND (ND = Not Detected, or <0.05%)”. The “Unknown Impurities RRT~4.02” value ([2]; 1 month) was 0.08%, the pH ([2]; 1 month) was 8.77 and the “Potency (Assay)” value ([2]; 6 month) was 98.4%. For the same molecule, the “Purity (% Area)” value ([2]; 6 month) was 96.36%, the “Unknown Impurities RRT~0.29” value ([2]; 6 month) was 0.23% and the “Unknown Impurities RRT~0.41” value ([2]; 6 month) was 0.45%. For the same molecule, the “Unknown Impurities RRT~0.44” value ([2]; 6 month) was “ND (ND = Not Detected, or <0.05%)”, the “Unknown Impurities RRT~0.49” value ([2]; 6 month) was 1.41% and the “Unknown Impurities RRT~0.59” value ([2]; 6 month) was 0.15%. The “Unknown Impurities RRT~0.62” value ([2]; 6 month) was “ND (ND = Not Detected, or <0.05%)”, the “Unknown Impurities RRT~0.73” value ([2]; 6 month) was 0.84% and the “Unknown Impurities RRT~1.69” value ([2]; 6 month) was 0.22%. For the same molecule, the “Unknown Impurities RRT~2.96” value ([2]; 6 month) was “ND (ND = Not Detected, or <0.05%)”, the “Unknown Impurities RRT~3.02” value ([2]; 6 month) was “ND (ND = Not Detected, or <0.05%)” and the “Unknown Impurities RRT~3.12” value ([2]; 6 month) was 0.08%. For the same molecule, the “Unknown Impurities RRT~3.24” value ([2]; 6 month) was “ND (ND = Not Detected, or <0.05%)”, the “Unknown Impurities RRT~3.30” value ([2]; 6 month) was 0.06% and the “Unknown Impurities RRT~3.33” value ([2]; 6 month) was 0.05%. The “Unknown Impurities RRT~3.70” value ([2]; 6 month) was “ND (ND = Not Detected, or <0.05%)”, the “Unknown Impurities RRT~4.02” value ([2]; 6 month) was 0.09% and the pH ([2]; 6 month) was 8.72. For the same molecule, the “Potency (Assay)” value ([2]; 12 month) was 86.1%, the “Purity (% Area)” value ([2]; 12 month) was 90.94% and the “Unknown Impurities RRT~0.29” value ([2]; 12 month) was 0.13%. The “Unknown Impurities RRT~0.41” value ([2]; 12 month) was 5.26%, the “Unknown Impurities RRT~0.44” value ([2]; 12 month) was “ND (ND = Not Detected, or <0.05%)” and the “Unknown Impurities RRT~0.49” value ([2]; 12 month) was 1.19%. For the same molecule, the “Unknown Impurities RRT~0.59” value ([2]; 12 month) was 0.27%, the “Unknown Impurities RRT~0.62” value ([2]; 12 month) was 0.43% and the “Unknown Impurities RRT~0.73” value ([2]; 12 month) was 0.88%. The “Unknown Impurities RRT~1.69” value ([2]; 12 month) was 0.25%, the “Unknown Impurities RRT~2.96” value ([2]; 12 month) was 0.08% and the “Unknown Impurities RRT~3.02” value ([2]; 12 month) was 0.09%. The “Unknown Impurities RRT~3.12” value ([2]; 12 month) was 0.05%, the “Unknown Impurities RRT~3.24” value ([2]; 12 month) was 0.06% and the “Unknown Impurities RRT~3.30” value ([2]; 12 month) was 0.13%. For the same molecule, the “Unknown Impurities RRT~3.33” value ([2]; 12 month) was 0.06%, the “Unknown Impurities RRT~3.70” value ([2]; 12 month) was 0.09% and the “Unknown Impurities RRT~4.02” value ([2]; 12 month) was 0.14%. For the same molecule, the pH ([2]; 12 month) was 8.83, the “Potency (Assay)” value ([2]; Initial) was 100.3% and the “Purity (% Area)” value ([2]; Initial) was 98.04%. The “Unknown Impurities RRT~0.29” value ([2]; Initial) was 0.11%, the “Unknown Impurities RRT~0.41” value ([2]; Initial) was “ND (ND = Not Detected, or <0.05%)” and the “Unknown Impurities RRT~0.44” value ([2]; Initial) was “ND (ND = Not Detected, or <0.05%)”. For the same molecule, the “Unknown Impurities RRT~0.49” value ([2]; Initial) was 0.62%, the “Unknown Impurities RRT~0.59” value ([2]; Initial) was “ND (ND = Not Detected, or <0.05%)” and the “Unknown Impurities RRT~0.62” value ([2]; Initial) was “ND (ND = Not Detected, or <0.05%)”. For the same molecule, the “Unknown Impurities RRT~0.73” value ([2]; Initial) was 1.05%, the “Unknown Impurities RRT~1.69” value ([2]; Initial) was “ND (ND = Not Detected, or <0.05%)” and the “Unknown Impurities RRT~2.96” value ([2]; Initial) was “ND (ND = Not Detected, or <0.05%)”. The “Unknown Impurities RRT~3.02” value ([2]; Initial) was “ND (ND = Not Detected, or <0.05%)”, the “Unknown Impurities RRT~3.12” value ([2]; Initial) was “ND (ND = Not Detected, or <0.05%)” and the “Unknown Impurities RRT~3.24” value ([2]; Initial) was “ND (ND = Not Detected, or <0.05%)”. The “Unknown Impurities RRT~3.30” value ([2]; Initial) was “ND (ND = Not Detected, or <0.05%)”, the “Unknown Impurities RRT~3.33” value ([2]; Initial) was “ND (ND = Not Detected, or <0.05%)” and the “Unknown Impurities RRT~3.70” value ([2]; Initial) was “ND (ND = Not Detected, or <0.05%)”. The “Unknown Impurities RRT~4.02” value ([2]; Initial) was “ND (ND = Not Detected, or <0.05%)” and the pH ([2]; Initial) was 8.60.
